Experimental data from the NIST ThermoML archive (doi:10.1021/je050402s).
± gives the expanded uncertainty stated by the source.

Experiment: xn = mol fraction of the nth substance listed
Conditions: 100.5 kPa, Liquid; for viscosity: Capillary tube (Ostwald / Ubbelohde) method

## CCOC(=O)CC(C)=O [ethyl 3-oxobutanoate] + CCO
288.15 K, x1 = 0.05
  viscosity: 1.266 ± 0.014 mPa·s
  mass density: 818.78 ± 0.41 kg/m3
288.15 K, x1 = 0.1
  viscosity: 1.204 ± 0.014 mPa·s
  mass density: 841 ± 0.38 kg/m3
288.15 K, x1 = 0.15
  viscosity: 1.19 ± 0.014 mPa·s
  mass density: 860.94 ± 0.36 kg/m3
288.15 K, x1 = 0.2
  viscosity: 1.194 ± 0.014 mPa·s
  mass density: 878.93 ± 0.34 kg/m3
288.15 K, x1 = 0.25
  viscosity: 1.206 ± 0.014 mPa·s
  mass density: 895.25 ± 0.32 kg/m3
288.15 K, x1 = 0.3
  viscosity: 1.226 ± 0.014 mPa·s
  mass density: 910.15 ± 0.31 kg/m3
288.15 K, x1 = 0.35
  viscosity: 1.25 ± 0.014 mPa·s
  mass density: 923.79 ± 0.31 kg/m3
288.15 K, x1 = 0.4
  viscosity: 1.28 ± 0.014 mPa·s
  mass density: 936.31 ± 0.3 kg/m3
288.15 K, x1 = 0.45
  viscosity: 1.312 ± 0.014 mPa·s
  mass density: 947.86 ± 0.3 kg/m3
288.15 K, x1 = 0.5
  viscosity: 1.349 ± 0.014 mPa·s
  mass density: 958.56 ± 0.31 kg/m3
288.15 K, x1 = 0.55
  viscosity: 1.39 ± 0.015 mPa·s
  mass density: 968.53 ± 0.31 kg/m3
288.15 K, x1 = 0.6
  viscosity: 1.435 ± 0.015 mPa·s
  mass density: 977.79 ± 0.31 kg/m3
288.15 K, x1 = 0.65
  viscosity: 1.484 ± 0.015 mPa·s
  mass density: 986.4 ± 0.32 kg/m3
288.15 K, x1 = 0.7
  viscosity: 1.536 ± 0.015 mPa·s
  mass density: 994.51 ± 0.33 kg/m3
288.15 K, x1 = 0.75
  viscosity: 1.591 ± 0.016 mPa·s
  mass density: 1002.07 ± 0.34 kg/m3
288.15 K, x1 = 0.8
  viscosity: 1.65 ± 0.016 mPa·s
  mass density: 1009.18 ± 0.36 kg/m3
288.15 K, x1 = 0.85
  viscosity: 1.709 ± 0.016 mPa·s
  mass density: 1015.85 ± 0.39 kg/m3
288.15 K, x1 = 0.9
  viscosity: 1.773 ± 0.017 mPa·s
  mass density: 1022.16 ± 0.41 kg/m3
288.15 K, x1 = 0.95
  viscosity: 1.834 ± 0.017 mPa·s
  mass density: 1028.15 ± 0.43 kg/m3
288.15 K, x1 = 1
  viscosity: 1.902 ± 0.017 mPa·s
  mass density: 1033.92 ± 0.45 kg/m3
298.15 K, x1 = 0.05
  viscosity: 1.042 ± 0.013 mPa·s
  mass density: 809.91 ± 0.43 kg/m3
298.15 K, x1 = 0.1
  viscosity: 1.001 ± 0.013 mPa·s
  mass density: 831.89 ± 0.4 kg/m3
298.15 K, x1 = 0.15
  viscosity: 0.99 ± 0.013 mPa·s
  mass density: 851.63 ± 0.37 kg/m3
298.15 K, x1 = 0.2
  viscosity: 0.994 ± 0.013 mPa·s
  mass density: 869.45 ± 0.35 kg/m3
298.15 K, x1 = 0.25
  viscosity: 1.003 ± 0.013 mPa·s
  mass density: 885.63 ± 0.34 kg/m3
298.15 K, x1 = 0.3
  viscosity: 1.019 ± 0.013 mPa·s
  mass density: 900.41 ± 0.32 kg/m3
298.15 K, x1 = 0.35
  viscosity: 1.038 ± 0.013 mPa·s
  mass density: 913.94 ± 0.32 kg/m3
298.15 K, x1 = 0.4
  viscosity: 1.061 ± 0.014 mPa·s
  mass density: 926.37 ± 0.31 kg/m3
298.15 K, x1 = 0.45
  viscosity: 1.087 ± 0.014 mPa·s
  mass density: 937.83 ± 0.31 kg/m3
298.15 K, x1 = 0.5
  viscosity: 1.117 ± 0.014 mPa·s
  mass density: 948.47 ± 0.31 kg/m3
298.15 K, x1 = 0.55
  viscosity: 1.151 ± 0.014 mPa·s
  mass density: 958.37 ± 0.31 kg/m3
298.15 K, x1 = 0.6
  viscosity: 1.189 ± 0.014 mPa·s
  mass density: 967.55 ± 0.32 kg/m3
298.15 K, x1 = 0.65
  viscosity: 1.227 ± 0.014 mPa·s
  mass density: 976.13 ± 0.32 kg/m3
298.15 K, x1 = 0.7
  viscosity: 1.27 ± 0.014 mPa·s
  mass density: 984.17 ± 0.33 kg/m3
298.15 K, x1 = 0.75
  viscosity: 1.316 ± 0.015 mPa·s
  mass density: 991.71 ± 0.34 kg/m3
298.15 K, x1 = 0.8
  viscosity: 1.366 ± 0.015 mPa·s
  mass density: 998.79 ± 0.36 kg/m3
298.15 K, x1 = 0.85
  viscosity: 1.415 ± 0.015 mPa·s
  mass density: 1005.46 ± 0.38 kg/m3
298.15 K, x1 = 0.9
  viscosity: 1.471 ± 0.015 mPa·s
  mass density: 1011.74 ± 0.4 kg/m3
298.15 K, x1 = 0.95
  viscosity: 1.524 ± 0.016 mPa·s
  mass density: 1017.72 ± 0.42 kg/m3
298.15 K, x1 = 1
  viscosity: 1.581 ± 0.016 mPa·s
  mass density: 1023.45 ± 0.44 kg/m3
